Results taken from PubChem BioAssay AID651630 (Sanford-Burnham Center for Chemical Genomics, 2012).
pIC50: −log10 of the molar value. Activity calls are given as the source filed them.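 How the source made its calls: active means lipid-stain IC50 at or below a set limit, with nuclear-stain toxicity IC50 at least five times higher; inactive means the rest.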

Legend:
DAPI = experiment: TAG lipid buildup inhibition with viability readout – cell-based, panel, Nile Red and DAPI fluorescence, H9c2, dose response (AID 651630); conditions: H9c2 cells, DAPI nuclear fluorescence (cytotoxicity counter-readout), oleic acid;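 further: cells exposed to compound overnight before fixation and staining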
TAG = experiment: as above; conditions: H9c2 cells, Nile Red TAG fluorescence, oleic acid

Row | SMILES | IC50 cytotoxicity (DAPI nuclear signal decrease) (DAPI; mean of runs) | IC50 cytotoxicity (DAPI nuclear signal decrease) (DAPI; run 1) | IC50 cytotoxicity (DAPI nuclear signal decrease) (DAPI; run 2) | IC50 (TAG; mean of runs) | pIC50 (TAG; run 1) | pIC50 (TAG; run 2) | pIC50 (TAG; mean of runs)
1 | CC(=O)Nc1ccc(NC2=Nc3ccccc3N3C2=Nc2c(c(C)nn2-c2ccccc2)C3c2ccccc2)cc1 (stereo unspecified) | > 25 µM (inactive) | > 25 µM | > 25 µM | > 25 µM (inactive) | < 4.60 | < 4.60 | –
2 | COc1ccc2nc(NC(=O)c3cccc(OCc4c(C)noc4C)c3)sc2c1 | > 25 µM (inactive) | > 25 µM | > 25 µM | 17.6 µM (inactive) | 4.76 | 4.75 | –
3 | CSc1cc(-c2ccccc2)n(Cc2c(Cl)cccc2Cl)c(=O)c1C#N | > 25 µM (inactive) | > 25 µM | > 25 µM | – | 4.75 | < 4.60 | –
4 | COc1cc(-c2noc(C)c2C#Cc2ccc(N)cc2)cc(OC)c1OC | > 25 µM (inactive) | > 25 µM | > 25 µM | – | < 4.60 | 5.08 | –
5 | CCN1C(=O)[C@H]2[C@@H](c3ccc(-c4cccc(Cl)c4)cc3)N[C@@](Cc3ccccc3)(C(=O)OC)[C@H]2C1=O | > 25 µM (inactive) | > 25 µM | > 25 µM | 20 µM (inactive) | 4.80 | 4.62 | –
6 | CCCCCCSc1ccc([C@H]2N[C@@](CC(C)C)(C(=O)OC)[C@H]3C(=O)N(C)C(=O)[C@@H]23)cc1OC | > 25 µM (inactive) | > 25 µM | > 25 µM | > 25 µM (inactive) | < 4.60 | < 4.60 | –
7 | CN(C)c1ccc(NC(=O)Nc2nc(C(N)C3CCCCC3)cs2)cc1 (stereo unspecified) | > 25 µM (inactive) | > 25 µM | > 25 µM | > 25 µM (inactive) | < 4.60 | < 4.60 | –
8 | COc1cc(NC(=O)c2cc3cccc(OC)c3o2)cc(C(=O)Nc2cccc(C(F)(F)F)c2)c1 | > 25 µM (inactive) | > 25 µM | > 25 µM | – | 5.03 | 4.83 | 4.92
9 | Cc1cccc(C(=O)N[C@H](C(=O)Nc2ncc(C)s2)C(C)C)c1 | – | 22.9 µM | > 25 µM | – | 5.01 | 5.05 | 5.03
10 | CCn1c(SCC(=O)Nc2nc(-c3ccc(C)cc3)cs2)nnc1-c1ccccc1O | – | > 25 µM | > 25 µM | – | 5.78 | 5.77 | 5.77
11 | CN(C)CCCN1c2ccccc2Sc2ccc3ccccc3c21 | > 25 µM (inactive) | > 25 µM | > 25 µM | > 25 µM (inactive) | < 4.60 | < 4.60 | –
12 | CC(C)N1CSC(=S)N(Cc2ccccc2)C1 | > 25 µM (inactive) | > 25 µM | > 25 µM | > 25 µM (inactive) | < 4.60 | < 4.60 | –
13 | COc1cc(OC)c2c(-c3ccccc3)cc(=O)oc2c1C(CCN1CCCC(C)C1)c1ccc2c(c1)OCO2 (stereo unspecified) | > 25 µM (inactive) | > 25 µM | > 25 µM | – | < 4.60 | 4.86 | –
14 | COc1cc(OC)c2c(-c3ccccc3)cc(=O)oc2c1C(CCN1CCCCC1)c1ccc(N(C)C)cc1 (stereo unspecified) | – | 15.9 µM | > 25 µM | – | 5.02 | < 4.60 | –
15 | C[C@H](CO)N1C[C@H](C)[C@H](CN(C)S(=O)(=O)c2ccc(Cl)cc2)OCc2ccccc2-c2c(n(C)c3ccccc23)C1=O | – | 13 µM | > 25 µM | > 25 µM (inactive) | < 4.60 | < 4.60 | –
16 | COc1ccc(-c2csc(NC(=S)NC(=O)/C=C/c3ccco3)n2)cc1Br | > 25 µM (inactive) | > 25 µM | > 25 µM | – | 5.23 | 5.00 | 5.10
17 | Cc1ccc(Sc2cc(N3CCOCC3)nc(-c3ccccc3)n2)cc1 | > 25 µM (inactive) | > 25 µM | > 25 µM | > 25 µM (inactive) | < 4.60 | < 4.60 | –

Row | SMILES | IC50 cytotoxicity (DAPI nuclear signal decrease) (DAPI; mean of runs) | IC50 cytotoxicity (DAPI nuclear signal decrease) (DAPI; run 1) | IC50 cytotoxicity (DAPI nuclear signal decrease) (DAPI; run 2) | IC50 (TAG; mean of runs) | pIC50 (TAG; run 1) | pIC50 (TAG; run 2) | pIC50 (TAG; mean of runs)
18 | COc1cc(OC)c2c(-c3ccccc3)cc(=O)oc2c1C(CCN1CCCCC1)c1ccc2c(c1)OCO2 (stereo unspecified) | > 25 µM (inactive) | > 25 µM | > 25 µM | 22.9 µM (inactive) | 4.68 | 4.60 | –
19 | COc1cc(OC)nc(Nc2nc(C(N)Cc3ccc(Cl)cc3)cs2)n1 (stereo unspecified) | > 25 µM (inactive) | > 25 µM | > 25 µM | – | < 4.60 | 4.63 | –
20 | O=C(c1ccoc1)N1CCN(c2cc(-c3ccccc3)nc3cc(-c4ccc(Br)cc4)nn23)CC1 | > 25 µM (inactive) | > 25 µM | > 25 µM | – | 4.89 | 4.95 | 4.92
21 | CCOC(=O)c1cc(CC)sc1NC(=O)c1cc([N+](=O)[O-])ccc1N1CCOCC1 | > 25 µM (inactive) | > 25 µM | > 25 µM | > 25 µM (inactive) | < 4.60 | < 4.60 | –
22 | Cc1ccc(Cl)cc1NC(=S)N/N=C/c1cccc2ccccc12 | > 25 µM (inactive) | > 25 µM | > 25 µM | – | 4.70 | < 4.60 | –
23 | CC(C)(C)N1C(=O)[C@H]2[C@@H](c3ccc(Br)cc3)N3C(=O)N(c4ccc(Br)cc4)C(=O)[C@@]3(Cc3ccccc3)[C@H]2C1=O | > 25 µM (inactive) | > 25 µM | > 25 µM | 17.2 µM (inactive) | 4.74 | 4.80 | –
24 | Cc1noc(C)c1COc1cccc(C(=O)OCC(=O)N2CC(=O)Nc3ccccc32)c1 | > 25 µM (inactive) | > 25 µM | > 25 µM | 15.4 µM (inactive) | 4.95 | 4.71 | –
25 | CCOC(=O)C1=C(C)N(C[C@@H]2CC[C@@H](Cc3ccc(-c4ccccc4)cc3)O2)C(=O)NC1c1cccc2ccccc12 (stereo partly specified) | > 25 µM (inactive) | > 25 µM | > 25 µM | – | 4.85 | 4.88 | 4.87
26 | CCOC(=O)c1c(C)[nH]c(C(=O)OCC(=O)NCCc2ccc(OCC)c(OCC)c2)c1C | > 25 µM (inactive) | > 25 µM | > 25 µM | > 25 µM (inactive) | < 4.60 | < 4.60 | –
27 | CCOc1cc(N2CCOCC2)c(OCC)cc1NC(=O)CC12CC3CC(CC(C3)C1)C2 | > 25 µM (inactive) | > 25 µM | > 25 µM | – | 4.65 | < 4.60 | –
28 | Cc1ccc(CC2(OCCN(C)C)CCC(C(C)(C)C)CC2)cc1 (stereo unspecified) | 23.5 µM (inactive) | 23.2 µM | 23.8 µM | > 25 µM (inactive) | < 4.60 | < 4.60 | –
29 | Cc1ccc(-c2csc(NC(=O)CSc3nc4ccccc4c(=O)n3CCCN(C)C)n2)cc1 | > 25 µM (inactive) | > 25 µM | > 25 µM | – | 5.13 | 5.18 | 5.15
30 | O=C(c1ccoc1)N1CCN(c2cc(-c3cccc(F)c3)nc3cc(-c4cccc(Cl)c4)nn23)CC1 | > 25 µM (inactive) | > 25 µM | > 25 µM | > 25 µM (inactive) | < 4.60 | < 4.60 | –
31 | O=P(O)(O)CN1CCNCCN(CP(=O)(O)O)CCNCC1 | > 25 µM (inactive) | > 25 µM | > 25 µM | – | 4.61 | < 4.60 | –
32 | O=C1c2ccccc2C(=O)c2c1ccc(C(=O)N1CCCCC1)c2NCCO | – | > 25 µM | > 25 µM | – | 5.46 | 5.47 | 5.47
33 | CCOC(=O)[C@H]1[C@H]2COc3ccc(Br)cc3[C@@H]2N2C(=O)c3cc(Br)ccc3NC(=O)[C@@]12C | > 25 µM (inactive) | > 25 µM | > 25 µM | > 25 µM (inactive) | < 4.60 | < 4.60 | –
34 | Cc1cccc(N2CCN(C(=O)c3c(-c4ccccc4Cl)noc3C)CC2)c1C | > 25 µM (inactive) | > 25 µM | > 25 µM | 16.3 µM (inactive) | 4.78 | 4.80 | –
